Results: ChEMBL document CHEMBL1201862, “PubChem BioAssay data set” (2004)
Where “and” joins values, the source holds several entries; their conditions need not be identical. Identical values can stand only once. Counter-ions that a name gives are not always drawn.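 Five compound concentrations were applied to cells in 96-well plates for 48 hours; endpoints were derived by simple linear interpolation of the resulting dose-response curve. GI50 marks 50% less growth.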 Calls of active or inactive are those of the source. No stated cut-off is given here; in the data, active = GI50 up to about 1.1 µM and inactive = higher. Residues, ends and D or L forms follow the SMILES beside them. *: point of attachment. Tfa = O=C(C(F)(F)F)*

Columns and labels:
Assay in all cases: NCI anticancer screen, dose series, 48 h
SNB-75 = system: SNB-75
A498 = system: A498
Hs-578T = system: Hs-578T
MDA-MB-231 = system: MDA-MB-231
OVCAR-4 = system: OVCAR-4
SR = system: SR
HCT-116 = system: HCT-116
A549 = system: A549
TK-10 = system: TK-10
RPMI-8226 = system: RPMI-8226
T47D = system: T47D
SK-MEL-28 = system: SK-MEL-28
MCF7 = system: MCF7
MOLT-4 = system: MOLT-4
OVCAR-5 = system: OVCAR-5
SK-MEL-5 = system: SK-MEL-5
DU-145 = system: DU-145
MDA-MB-435 = system: MDA-MB-435
SF-539 = system: SF-539
HOP-92 = system: HOP-92

Row | Structure (SMILES) | GI50 (SNB-75) | GI50 (A498) | GI50 (Hs-578T) | GI50 (MDA-MB-231) | GI50 (OVCAR-4) | GI50 (SR) | GI50 (HCT-116) | GI50 (A549) | GI50 (TK-10) | GI50 (RPMI-8226) | GI50 (T47D) | GI50 (SK-MEL-28) | GI50 (MCF7) | GI50 (MOLT-4) | GI50 (OVCAR-5) | GI50 (SK-MEL-5) | GI50 (DU-145) | GI50 (MDA-MB-435) | GI50 (SF-539) | GI50 (HOP-92)
1 | CC(C)c1ccc2c(c1)/C(=C1/Nc3ccccc3/C1=N/O)C(=O)N2 | 12.7 µM (inactive) | 2.78 µM (inactive) | 4.76 µM (inactive) | 15.3 µM (inactive) | 4.32 µM (inactive) | 2.61 µM (inactive) | 3.76 µM (inactive) | 6.28 µM (inactive) | 9.4 µM (inactive) | 4.17 µM (inactive) | 3.88 µM (inactive) | 13.5 µM (inactive) | 1.69 µM (inactive) | 3.3 µM (inactive) | 16.1 µM (inactive) | 3.82 µM (inactive) | 6.07 µM (inactive) | 7.38 µM (inactive) | – | –
2 | CC1(C)C=[N+]([O-])C(C)(C)N1 | > 100 µM (inactive) | – | > 100 µM (inactive) | > 100 µM (inactive) | > 100 µM (inactive) | > 100 µM (inactive) | > 100 µM (inactive) | > 100 µM (inactive) | > 100 µM (inactive) | > 100 µM (inactive) | > 100 µM (inactive) | > 100 µM (inactive) | > 100 µM (inactive) | > 100 µM (inactive) | > 100 µM (inactive) | > 100 µM (inactive) | > 100 µM (inactive) | > 100 µM (inactive) | > 100 µM (inactive) | > 100 µM (inactive)
3 | CC(=O)Oc1ccc2c(c1OC(C)=O)CCC1C2=CC[C@]2(C)C(=O)CCC12 (stereo partly specified) | – | – | 19.6 µM (inactive) | 14.3 µM (inactive) | 3.36 µM (inactive) | 6.61 µM (inactive) | 4.92 µM (inactive) | 16 µM (inactive) | 13.9 µM (inactive) | 1 µM (active) | 9.46 µM (inactive) | 9.12 µM (inactive) | 14.2 µM (inactive) | 3.3 µM (inactive) | 15.1 µM (inactive) | < 0.01 µM (active) | 15.7 µM (inactive) | 4.45 µM (inactive) | 14.2 µM (inactive) | 5.15 µM (inactive)
4 | CCN(CC)CCOC(c1cc(OC)ccc1OC)c1ccc2n1-c1ccccc1OC2 (stereo unspecified) | 2.31 µM (inactive) | 11.8 µM (inactive) | 13.7 µM (inactive) | 2.09 µM (inactive) | 13.9 µM (inactive) | – | 12.6 µM (inactive) | 14 µM (inactive) | 12.1 µM (inactive) | 3.44 µM (inactive) | 24 µM (inactive) | 15 µM (inactive) | 14.6 µM (inactive) | – | 15.8 µM (inactive) | 10.4 µM (inactive) | 22.9 µM (inactive) | 10.5 µM (inactive) | – | 1.89 µM (inactive)
5 | NC(Cc1ccc2nc3c4ccccc4c(=O)cc-3oc2c1)C(=O)O (stereo unspecified) | 65.8 µM (inactive) | – | 56.1 µM (inactive) | > 100 µM (inactive) | > 100 µM (inactive) | > 100 µM (inactive) | > 100 µM (inactive) | 44.2 µM (inactive) | > 100 µM (inactive) | > 100 µM (inactive) | > 100 µM (inactive) | > 100 µM (inactive) | 18.4 µM (inactive) | – | > 100 µM (inactive) | 18 µM (inactive) | > 100 µM (inactive) | 18.2 µM (inactive) | > 100 µM (inactive) | > 100 µM (inactive)
6 | COc1ccccc1/C(=N\OCCC(=O)O)c1cccs1 | > 100 µM (inactive) | > 100 µM (inactive) | 56.6 µM (inactive) | > 100 µM (inactive) | > 100 µM (inactive) | – | > 100 µM (inactive) | > 100 µM (inactive) | > 100 µM (inactive) | > 100 µM (inactive) | > 100 µM (inactive) | > 100 µM (inactive) | > 100 µM (inactive) | > 100 µM (inactive) | > 100 µM (inactive) | > 100 µM (inactive) | > 100 µM (inactive) | > 100 µM (inactive) | > 100 µM (inactive) | > 100 µM (inactive)
7 | O=C(c1ccc(O)c([N+](=O)[O-])c1)c1ccc(O)c([N+](=O)[O-])c1 | 28.7 µM (inactive) | > 100 µM (inactive) | 46.3 µM (inactive) | > 100 µM (inactive) | > 100 µM (inactive) | – | > 100 µM (inactive) | 89.9 µM (inactive) | > 100 µM (inactive) | 3.33 µM (inactive) | > 100 µM (inactive) | 47.2 µM (inactive) | 93.1 µM (inactive) | – | > 100 µM (inactive) | > 100 µM (inactive) | > 100 µM (inactive) | 20.8 µM (inactive) | 53.5 µM (inactive) | 24 µM (inactive)
8 | CCOC(=O)CC[C@@H](NC(=O)c1ccc(NCc2ccc3nc(OC)c(OC)nc3c2)cc1)C(=O)OCC | 14.5 µM (inactive) | – | > 29.9 µM (inactive) | 36.1 µM (inactive) | 38.9 µM (inactive) | 25.1 µM (inactive) | > 100 µM (inactive) | > 100 µM (inactive) | 60.5 µM (inactive) | > 94.8 µM (inactive) | 19.1 µM (inactive) | 16.1 µM (inactive) | 25.5 µM (inactive) | 16.6 µM (inactive) | > 100 µM (inactive) | 13.6 µM (inactive) | 58.2 µM (inactive) | 31.4 µM (inactive) | 18.5 µM (inactive) | 11.4 µM (inactive)
9 | CCn1cc(C(=O)O)c(=O)c2cc3c(cc21)S(=O)(=O)CC3 | > 100 µM (inactive) | > 100 µM (inactive) | > 100 µM (inactive) | > 100 µM (inactive) | > 100 µM (inactive) | – | > 100 µM (inactive) | > 100 µM (inactive) | > 100 µM (inactive) | > 100 µM (inactive) | > 100 µM (inactive) | > 100 µM (inactive) | > 100 µM (inactive) | > 100 µM (inactive) | > 100 µM (inactive) | > 100 µM (inactive) | > 100 µM (inactive) | > 100 µM (inactive) | > 100 µM (inactive) | > 100 µM (inactive)
10 | CC1CNC(c2ccc(COc3ccc(C4=NC(C)CN4)cc3)cc2)=N1 (stereo unspecified) | 13.2 µM (inactive) | > 100 µM (inactive) | 22.9 µM (inactive) | 45.9 µM (inactive) | > 100 µM (inactive) | – | 39.1 µM (inactive) | 21.2 µM (inactive) | 65.9 µM (inactive) | 29.9 µM (inactive) | 15.5 µM (inactive) | 41.8 µM (inactive) | 18.3 µM (inactive) | > 100 µM (inactive) | > 100 µM (inactive) | 28.6 µM (inactive) | > 100 µM (inactive) | 61 µM (inactive) | 54.8 µM (inactive) | > 100 µM (inactive)
11 | CCOC(=O)c1cc(NC(=O)N(CCC#N)CCN(C(=O)N[C@@H](Cc2ccccc2)C(=O)N[C@@H](CC(C)C)C(=O)NC)c2ccccc2)ccc1OC | 45 µM (inactive) | 63.7 µM (inactive) | 42.2 µM (inactive) | 74.5 µM (inactive) | 44 µM (inactive) | – | 42.4 µM (inactive) | > 100 µM (inactive) | 46.5 µM (inactive) | 16.3 µM (inactive) | 28.1 µM (inactive) | 28.9 µM (inactive) | 58.6 µM (inactive) | 23.4 µM (inactive) | > 100 µM (inactive) | 42.3 µM (inactive) | 44.6 µM (inactive) | 30.9 µM (inactive) | 31.3 µM (inactive) | 34.3 µM (inactive)
12 | COC(=O)[C@H](Cc1ccccc1)NC(=O)[C@H](Cc1ccccc1)NC(=O)CN1C(=O)[C@@H]2C3C=CC(C3)[C@@H]2C1=O | 18.7 µM (inactive) and 18 µM (inactive) | 22.9 µM (inactive) and 16.8 µM (inactive) | 19.1 µM (inactive) and 19.5 µM (inactive) | 17.3 µM (inactive) and 17 µM (inactive) | 16.1 µM (inactive) and 19 µM (inactive) | – | 16.6 µM (inactive) and 14.3 µM (inactive) | 22 µM (inactive) and 21.1 µM (inactive) | 18.9 µM (inactive) and 17.5 µM (inactive) | 21.6 µM (inactive) and 14.9 µM (inactive) | 21.9 µM (inactive) and 21.7 µM (inactive) | 19.3 µM (inactive) and 18.1 µM (inactive) | 18.5 µM (inactive) and 17.8 µM (inactive) | 3.32 µM (inactive) and 2.26 µM (inactive) | 22 µM (inactive) and 19.8 µM (inactive) | 18.2 µM (inactive) and 15 µM (inactive) | 20.1 µM (inactive) and 17.9 µM (inactive) | 15.3 µM (inactive) and 17.3 µM (inactive) | 18.7 µM (inactive) and 17.9 µM (inactive) | 18.3 µM (inactive) and 20.6 µM (inactive)
13 | O=C(O)CC(NC(=O)C(F)(F)F)C(=O)NC(Cc1ccc(O)cc1)C(=O)O (stereo not drawn) (Tfa-Asp-Tyr-OH; configuration not given here) | > 50 µM (inactive) | – | > 50 µM (inactive) | > 50 µM (inactive) | – | > 50 µM (inactive) | – | > 50 µM (inactive) | > 50 µM (inactive) | > 50 µM (inactive) | > 50 µM (inactive) | > 50 µM (inactive) | > 50 µM (inactive) | > 50 µM (inactive) | > 50 µM (inactive) | > 50 µM (inactive) | > 50 µM (inactive) | > 50 µM (inactive) | > 50 µM (inactive) | > 50 µM (inactive)
14 | OB1OCc2ccccc21 [BENZOXABOROLE] | – | 34.5 µM (inactive) | 62.1 µM (inactive) | 77.1 µM (inactive) | 32.4 µM (inactive) | 52.7 µM (inactive) | 44.4 µM (inactive) | 33.8 µM (inactive) | 38.9 µM (inactive) | 18.2 µM (inactive) | > 100 µM (inactive) | 21.6 µM (inactive) | 24.9 µM (inactive) | 69.8 µM (inactive) | – | 46.9 µM (inactive) | > 100 µM (inactive) | 35.9 µM (inactive) | 25.1 µM (inactive) | –
